Results on eleven molecules are retold here after ChEMBL document CHEMBL1201862, “PubChem BioAssay data set” (2004).

Holding throughout (test): growth of human tumour cells (NCI), 48 h
In assay [1] the test system is A498.
The subject of assay [2] is CCRF-CEM.
Assay [3] relates to HOP-92.
Assay [4] concerns IGROV-1.
The subject of assay [5] is KM12.
Assay [6] has as its system LOX IMVI.
The test system of assay [7] is MDA-MB-231.
The subject of assay [8] is OVCAR-3.
The subject of assay [9] is OVCAR-5.
Assay [10] deals with PC-3.
The test system of assay [11] is RXF 393.
The test system of assay [12] is SK-MEL-2.
The test system of assay [13] is SK-MEL-5.
Assay [14] concerns SN12C.
Assay [15] concerns SNB-19.
The test system of assay [16] is SNB-75.
The test system of assay [17] is SW-620.
Assay [18] deals with UACC-257.
In assay [19] the test system is UO-31.
Assay [20] relates to MCF7.

Values joined by “and” are separate entries in the source; they are usually repeats but may differ in a detail not shown here. Identical values can stand only once.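 Test compounds were applied to cells in 96-well plates for 48 hours at 5 doses. GI50 marks 50% less growth.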 Active and inactive are the calls of the source. No stated cut-off is given here; in the data, active = GI50 up to about 1.1 µM and inactive = higher. Bounds are passed on as bounds.

Turning to `NCCSCc1ccccc1Cl`, the GI50 in assay [1] is 27 µM (inactive); in [2], 25.2 µM (inactive); in assay [3], 68.2 µM (inactive); in [4], 51.4 µM (inactive); in [5], 47.3 µM (inactive); in assay [6], 25.7 µM (inactive). The GI50 in assay [7] was 45.6 µM (inactive); in [8], 28.9 µM (inactive); in [9], > 100 µM (inactive); in [10], 30.3 µM (inactive); in assay [11], 83.8 µM (inactive); in [12], 30.6 µM (inactive). The GI50 was 63 µM (inactive) in assay [13]; 43.4 µM (inactive) in assay [14]; 80.4 µM (inactive) in assay [15]; 37.5 µM (inactive) in assay [16]; 33.4 µM (inactive) in [17]; 23.3 µM (inactive) in [18]. The GI50 in [19] was > 100 µM (inactive).

On to `COc1ccc(C2Oc3c(OC)cc(CCCO)cc3C2CO)cc1OC` (stereo not given), for which the GI50 is 56.5 µM (inactive) in assay [3]; > 100 µM (inactive) in [4]; > 100 µM (inactive) and 79.3 µM (inactive) in assay [5]; 27.6 µM (inactive) and 44.7 µM (inactive) in assay [20]; 99.3 µM (inactive) in assay [7]; > 100 µM (inactive) in assay [8]. The GI50 in assay [9] is > 100 µM (inactive); in assay [10], > 100 µM (inactive); in assay [11], > 100 µM (inactive); in [12], 95.1 µM (inactive); in assay [14], > 100 µM (inactive); in assay [15] it was > 100 µM (inactive). Also, the GI50 was > 100 µM (inactive) and 77.3 µM (inactive) in [16]; > 100 µM (inactive) in assay [17].

In the case of `CCOC(=O)C1(C(=O)OCC)[C@H](c2ccccc2)C2=NO[C@@H]3CCC[C@H]1[C@H]23`, the GI50 is 35.2 µM (inactive) in assay [2]; 54 µM (inactive) in assay [3]; 56.8 µM (inactive) in [4]; 34.8 µM (inactive) in assay [5]; > 100 µM (inactive) in assay [6]; 41.4 µM (inactive) in assay [20]. The GI50 in assay [7] was 75.7 µM (inactive); in [8], 25.1 µM (inactive); in assay [9], 65.6 µM (inactive); in assay [10], 49.3 µM (inactive); in assay [11], 52.1 µM (inactive); in assay [12] it was 40.9 µM (inactive). Also, the GI50 in assay [13] is 31.3 µM (inactive); in [14] it was > 100 µM (inactive); in assay [15], > 100 µM (inactive); in assay [16], 30.1 µM (inactive); in assay [17] it was 58.1 µM (inactive); in assay [18], 31.6 µM (inactive). Also, the GI50 in [19] is 57.4 µM (inactive).

Consider `CN(CCN1C(=O)c2cccc3cccc(c23)C1=O)CCN1C(=O)c2cccc3cccc(c23)C1=O`, for which the GI50 in [2] is 2.18 µM (inactive); in [4] it was 17.4 µM (inactive); in [5], > 100 µM (inactive); in assay [6], 58.6 µM (inactive); in assay [20], 84.3 µM (inactive); in assay [7], 13.7 µM (inactive). The GI50 was 21.2 µM (inactive) in assay [8]; > 100 µM (inactive) in [9]; > 100 µM (inactive) in assay [10]; 23.3 µM (inactive) in assay [11]; 45.7 µM (inactive) in assay [12]; > 100 µM (inactive) in [13]. The GI50 in assay [14] is 76 µM (inactive); in assay [15] it was 3.17 µM (inactive); in assay [16], 19.2 µM (inactive); in assay [18], 60.1 µM (inactive); in assay [19], 5.81 µM (inactive).

Turning to `Cc1ccccc1N/C(N)=N/C#N`, the GI50 in [2] is > 100 µM (inactive); in assay [3], 97.7 µM (inactive); in [4], > 100 µM (inactive); in assay [6], > 100 µM (inactive); in assay [20] it was > 100 µM (inactive); in assay [7], > 100 µM (inactive). The GI50 in assay [9], in assay [10], in assay [11], in [12], in assay [13] and in assay [14] was > 100 µM (inactive) each time. Moreover, the GI50 in assay [15], in assay [16], in assay [17], in [18] and in [19] was > 100 µM (inactive) in each case.

As to `C[N+]1([O-])CCC(O)(C2CC2)CC1` (stereo not given), the GI50 in assay [2], in assay [4], in [5], in [6], in [20] and in assay [7] was > 100 µM (inactive) in each case. In addition, the GI50 in assay [8], in [9], in assay [10], in [11], in assay [12] and in assay [13] was > 100 µM (inactive) each time. Also, the GI50 in assay [14], in assay [15], in [16], in assay [17], in [18] and in assay [19] was > 100 µM (inactive) each time.

Consider `CC1=C2CC(C)(C)CC(=O)C2(C)CCC1=O` (stereo not given), for which the GI50 in assay [2], in [4], in assay [5], in assay [6], in [20] and in assay [7] was > 100 µM (inactive) in each case. Further, the GI50 in assay [9], in [10], in assay [12], in [13], in assay [14] and in assay [15] was > 100 µM (inactive) throughout. In addition, the GI50 in [16], in assay [17], in assay [18] and in [19] was > 100 µM (inactive) each time.

Take `COc1ccc2nc3cc(Cl)ccc3c(NCCCNCc3cc(OC)c(OC)c(OC)c3)c2c1`: the GI50 in assay [2] is 0.865 µM (active); in assay [4], 1.82 µM (inactive); in assay [5], 1.64 µM (inactive); in assay [6], 1.54 µM (inactive); in [20], 1.75 µM (inactive); in assay [7], 1.98 µM (inactive). Besides, the GI50 in assay [8] was 1.83 µM (inactive); in assay [9] it was 1.69 µM (inactive); in [10], 1.4 µM (inactive); in assay [11] it was 1.46 µM (inactive); in assay [12], 1.91 µM (inactive); in assay [13], 1.4 µM (inactive). For the same molecule, the GI50 is 1.53 µM (inactive) in assay [14]; 1.83 µM (inactive) in [15]; 0.733 µM (active) in assay [17]; 1.94 µM (inactive) in assay [18]; 1.65 µM (inactive) in [19].

Turning to `Cc1ccccc1N(C)S(=O)(=O)c1ccccc1[N+](=O)[O-]`, the GI50 in assay [2] was 35.8 µM (inactive); in [4] it was > 100 µM (inactive); in [5], 55.7 µM (inactive); in assay [6] it was 55.3 µM (inactive); in assay [20], 42.5 µM (inactive); in assay [7] it was 22.3 µM (inactive). Also, the GI50 in [8] is 46.3 µM (inactive); in assay [9] it was 66.7 µM (inactive); in [10], 38.9 µM (inactive); in [11] it was 21.3 µM (inactive); in [12] it was 47.5 µM (inactive); in assay [13] it was 15.4 µM (inactive). For the same molecule, the GI50 in [14] is > 100 µM (inactive); in [15], 67.8 µM (inactive); in assay [16], 47.6 µM (inactive); in [17], 84.1 µM (inactive); in assay [18], 57 µM (inactive); in assay [19], 34.3 µM (inactive).

On to `COc1ccc2c(c1)C(=O)C1(C2)[C@H](c2ccccc2)C2C(=O)c3cc(OC)ccc3C2[C@H]1c1ccccc1` (stereo not given in full), for which the GI50 in assay [1] was > 100 µM (inactive); in assay [2] it was 73.5 µM (inactive); in assay [3], > 100 µM (inactive); in [4] it was > 100 µM (inactive); in [5], > 100 µM (inactive); in assay [6], > 100 µM (inactive). Moreover, the GI50 in assay [7] was > 100 µM (inactive); in assay [8] it was > 100 µM (inactive); in assay [9], > 100 µM (inactive); in assay [10], 16.6 µM (inactive); in assay [11], > 100 µM (inactive); in assay [13], > 100 µM (inactive). For the same molecule, the GI50 in assay [14] was > 100 µM (inactive); in assay [15], > 100 µM (inactive); in assay [16], 92.3 µM (inactive); in assay [17], > 100 µM (inactive); in assay [18] it was > 100 µM (inactive); in [19] it was > 100 µM (inactive).

For `N#CC1Nc2ccccc2[C@@H](O)C1O` (stereo not given in full), the GI50 in [2], in assay [3], in assay [4], in [5], in assay [6] and in [20] was > 100 µM (inactive) in each case. The GI50 in assay [7], in assay [8], in assay [9], in assay [10], in [11] and in assay [12] was > 100 µM (inactive) throughout. The GI50 in assay [13], in [14], in assay [16], in [17] and in [18] was > 100 µM (inactive) throughout.
